According to patent publication US8501804B2, “Bicyclic compound” (Takeda Pharmaceutical Company Limited, priority 2008, dated 2013):

Legend:
human ACC2 (Nd) = molecular target: T1, human ACC2 (Nd) (Homo sapiens, UniProt O00763); assay: ACC2 inhibitory activity (malachite green); type: biochemical; settings: test compound 10 μM; for inhibition at 10 µM: read-out: ACC2 10 μM inhibitory rate (%)
T1 construct: His6 (from vector pFAST-BacHTa); made in house; host or cells: SF-9 insect cells, recombinant baculovirus BAC-ACC2 (Nd)
T1 sequence (O00763 117-2458 limits assumed): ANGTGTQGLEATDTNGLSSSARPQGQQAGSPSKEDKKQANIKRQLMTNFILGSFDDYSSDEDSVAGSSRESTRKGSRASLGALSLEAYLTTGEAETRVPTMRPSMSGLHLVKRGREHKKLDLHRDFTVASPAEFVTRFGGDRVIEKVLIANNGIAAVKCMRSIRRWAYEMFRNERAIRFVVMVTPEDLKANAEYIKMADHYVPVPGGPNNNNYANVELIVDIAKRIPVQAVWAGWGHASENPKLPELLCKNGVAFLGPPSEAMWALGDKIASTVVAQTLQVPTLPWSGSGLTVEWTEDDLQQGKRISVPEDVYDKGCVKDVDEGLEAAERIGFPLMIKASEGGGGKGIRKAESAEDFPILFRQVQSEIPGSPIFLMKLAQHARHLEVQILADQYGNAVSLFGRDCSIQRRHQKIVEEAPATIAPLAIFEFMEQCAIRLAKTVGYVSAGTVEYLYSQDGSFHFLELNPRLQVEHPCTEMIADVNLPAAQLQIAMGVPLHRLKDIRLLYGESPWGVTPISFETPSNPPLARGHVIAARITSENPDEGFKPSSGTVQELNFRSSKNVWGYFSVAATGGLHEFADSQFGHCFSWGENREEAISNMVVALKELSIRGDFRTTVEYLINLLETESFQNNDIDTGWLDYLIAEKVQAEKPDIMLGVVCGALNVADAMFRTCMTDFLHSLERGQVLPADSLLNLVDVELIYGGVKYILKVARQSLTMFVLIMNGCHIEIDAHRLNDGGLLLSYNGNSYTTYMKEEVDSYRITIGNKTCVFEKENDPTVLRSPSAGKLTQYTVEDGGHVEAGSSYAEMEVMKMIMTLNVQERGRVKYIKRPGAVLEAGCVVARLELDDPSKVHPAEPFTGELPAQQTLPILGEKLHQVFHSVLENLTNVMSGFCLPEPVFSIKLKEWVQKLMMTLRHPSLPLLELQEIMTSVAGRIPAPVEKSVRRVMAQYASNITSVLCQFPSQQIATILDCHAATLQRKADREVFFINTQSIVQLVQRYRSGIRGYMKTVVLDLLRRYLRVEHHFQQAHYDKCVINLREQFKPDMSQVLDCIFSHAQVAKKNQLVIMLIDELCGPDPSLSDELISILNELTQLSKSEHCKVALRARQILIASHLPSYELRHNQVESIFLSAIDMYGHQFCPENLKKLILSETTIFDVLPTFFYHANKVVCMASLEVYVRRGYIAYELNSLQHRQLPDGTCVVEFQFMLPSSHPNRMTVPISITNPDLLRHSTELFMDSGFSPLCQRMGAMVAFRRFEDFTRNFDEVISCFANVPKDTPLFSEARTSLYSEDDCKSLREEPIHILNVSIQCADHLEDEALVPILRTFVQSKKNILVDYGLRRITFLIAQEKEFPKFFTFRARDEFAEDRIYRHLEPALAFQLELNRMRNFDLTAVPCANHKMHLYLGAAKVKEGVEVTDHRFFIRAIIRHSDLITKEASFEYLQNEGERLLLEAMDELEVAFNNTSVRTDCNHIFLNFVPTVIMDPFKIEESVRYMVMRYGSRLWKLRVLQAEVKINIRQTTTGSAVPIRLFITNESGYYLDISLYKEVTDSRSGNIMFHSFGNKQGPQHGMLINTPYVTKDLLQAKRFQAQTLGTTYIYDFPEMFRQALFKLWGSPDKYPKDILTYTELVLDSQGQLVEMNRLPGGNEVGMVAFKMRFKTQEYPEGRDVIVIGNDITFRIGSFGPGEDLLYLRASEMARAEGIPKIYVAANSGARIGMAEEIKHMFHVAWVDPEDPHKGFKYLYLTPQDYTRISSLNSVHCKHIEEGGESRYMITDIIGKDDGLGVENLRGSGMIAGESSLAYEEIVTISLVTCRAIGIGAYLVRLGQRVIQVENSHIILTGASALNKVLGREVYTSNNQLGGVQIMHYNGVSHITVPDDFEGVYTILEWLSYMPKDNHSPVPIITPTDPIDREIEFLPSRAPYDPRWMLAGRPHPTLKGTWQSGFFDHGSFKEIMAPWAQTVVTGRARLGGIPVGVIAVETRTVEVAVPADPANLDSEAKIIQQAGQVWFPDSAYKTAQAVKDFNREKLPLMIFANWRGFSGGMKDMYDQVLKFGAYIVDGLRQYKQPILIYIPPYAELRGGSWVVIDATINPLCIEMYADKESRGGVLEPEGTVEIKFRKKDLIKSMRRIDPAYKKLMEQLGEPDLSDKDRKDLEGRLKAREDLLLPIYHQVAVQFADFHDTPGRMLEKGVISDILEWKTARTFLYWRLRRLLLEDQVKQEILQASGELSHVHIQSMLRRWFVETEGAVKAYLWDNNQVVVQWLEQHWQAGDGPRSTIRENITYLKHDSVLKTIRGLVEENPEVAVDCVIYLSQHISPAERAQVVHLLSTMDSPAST
Outline: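 Enzyme: N-terminally truncated human ACC2 lacking the mitochondrial targeting sequence, His-tagged, expressed in baculovirus-infected Sf9 cells and Ni-NTA purified. Working dilution 6.4 μg/ml in 50 mM HEPES pH 7.5, 10 mM MgCl2, 10 mM tripotassium citrate, 2 mM DTT, 0.75 mg/ml fatty-acid-free BSA. Test compound in DMSO.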

human ACC1 = molecular target: T2, human ACC1 (Homo sapiens, UniProt Q13085); assay: ACC1 inhibitory activity (malachite green); type: biochemical; settings: test compound 10 μM; for inhibition at 10 µM: read-out: ACC1 10 μM inhibitory rate (%)
T2 construct: His6 (from vector pFAST-BacHTc); made in house; host or cells: SF-9 insect cells, recombinant baculovirus BAC-ACC1
Outline: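 His-tagged human ACC1 from baculovirus-infected Sf9 cells was Ni-NTA purified, diluted to 8 μg/ml, and preincubated with compound for 60 min at 30 °C in HEPES pH 7.5 buffer with MgCl2, citrate, DTT and BSA. Substrate solution (50 mM KHCO3, 200 μM ATP, 200 μM acetyl-CoA) was added for 20 min at 30 °C. Phosphate was read by malachite green at 620 nm against no-compound and no-acetyl-CoA controls.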

Structure (SMILES)	inhibition at 10 µM (human ACC2 (Nd))	inhibition at 10 µM (human ACC1)	ACC2 10 μM inhibitory rate (%) (human ACC2 (Nd))	ACC1 10 μM inhibitory rate (%) (human ACC1)
CC(=O)NC(C)c1cc2cc(OCc3ccc(OCC4CC4)cc3F)ccc2o1 (stereo not shown) [Example 110, N-[1-(5-{[4-(cyclopropylmethoxy)-2-fluorobenzyl]oxy}-1-benzofuran-2-yl)ethyl]acetamide]	78%	40%	–	–
CCOc1ccc(COc2ccc3cc(C(C)NC(C)=O)oc3c2)cc1Br (stereo not shown) [Example 175, N-(1-{6-[(3-bromo-4-ethoxybenzyl)oxy]-1-benzofuran-2-yl}ethyl)acetamide]	74%	15%	–	–
CCOc1ccc(CCc2ccc3cc(C(C)Nc4ccon4)oc3c2)cc1 (stereo not shown) [Example 124, N-(1-{6-[2-(4-ethoxyphenyl)ethyl]-1-benzofuran-2-yl}ethyl)isoxazol-3-amine]	81%	16%	–	–
CCOc1ccc(CCc2ccc3cc(C(C)NC(C)=O)oc3c2)cc1 (stereo not shown) [Example 20, N-(1-{6-[2-(4-ethoxyphenyl)ethyl]-1-benzofuran-2-yl}ethyl)acetamide]	–	–	83%	23%
CCOc1ccc(COc2ccc3oc(C(C)NC(C)=O)cc3c2)cc1 (stereo not shown) [Example 27, optically active forms (two kinds) of N-(1-{5-[(4-ethoxybenzyl)oxy]-1-benzofuran-2-yl}ethyl)acetamide]	–	–	76%	18%
CCCOc1ccc(CCc2ccc3cc(C(C)NC(C)=O)oc3c2)cc1 (stereo not shown) [Example 47, optically active forms (two kinds) of N-(1-{6-[2-(4-propoxyphenyl)ethyl]-1-benzofuran-2-yl}ethyl)acetamide]	–	–	91%	37%
CCOc1ccc(COc2ccc3oc(C(C)NC(C)=O)cc3c2)cc1 (stereo not shown) [Example 18, N-(1-{5-[(4-ethoxybenzyl)oxy]-1-benzofuran-2-yl}ethyl)acetamide]	85%	15%	–	–
CC(=O)NC(C)C1Cc2cc(OCc3ccc(OCC4CC4)cc3F)ccc2O1 (stereo not shown) [Example 140, N-[1-(5-{[4-(cyclopropylmethoxy)-2-fluorobenzyl]oxy}-2,3-dihydro-1-benzofuran-2-yl)ethyl]acetamide]	–	–	66%	20%
CC(=O)NC(C)c1cc2ccc(CCc3ccc(OCCC4CC4)cc3)cc2o1 (stereo not shown) [Example 174, N-[1-(6-{2-[4-(2-cyclopropylethoxy)phenyl]ethyl}-1-benzofuran-2-yl)ethyl]acetamide]	80%	34%	–	–
CCOc1ccc(OCc2ccc3sc(C(C)NC(C)=O)nc3c2)cc1 (stereo not shown) [Example 37, N-(1-{5-[(4-ethoxyphenoxy)methyl]-1,3-benzothiazol-2-30 yl}ethyl)acetamide]	77%	-4%	–	–
CC(=O)NC(C)c1cc2cc(OCc3ccc(OCC4CC4)nc3F)ccc2o1 (stereo not shown) [Example 153, N-[1-(5-{[6-(cyclopropylmethoxy)-2-fluoropyridin-3-yl]methoxy}-1-benzofuran-2-yl)ethyl]acetamide]	70%	24%	–	–
